# Assay results taken from patent US10358469B2, “Methods and pharmaceutical compositions for the treatment of cancer” (INSERM (INSTITUT NATIONAL DE LA SANTÉ ET DE LA RECHERCHE …, priority 2014, dated 2019).
# Columns and labels:
# solid tumor cell lines = test: Cell viability (MTT) of an array of solid tumor cell lines under low serum; format: cell-based; conditions: increasing concentrations, 24 hours, low serum conditions, FIG. 1B
# Experimental: (A) Karpas 1106, SU-DHL-5, SeAx and HUT-78 cells were plated at a densities of 6×10^3 in 96 well plates (100 μL total volume per well) and treated for 24 hours in a 37° C. incubator (5% CO2) with increasing concentrations of the Antp-AAC-11-LZ (363-399). 20 μL MTS reagent was then added to each well and plates were incubated for an additional 4 hours. Absorbance was measured at 490 nm using a 96-well plate reader. The extent to which the Antp-AAC-11-LZ (363-399) peptide inhibited cell proliferation was calculated as a percentage of the absorbance in each well containing the Antp-AAC-11-LZ (363-399) peptide relative to wells containing no peptide (negative control). […]
# Viability of cells cultured in the 96-well culture plates was assessed by measuring mitochondrial dehydrogenase activity, using the colorimetric CellTiter 96® AQueous One Solution Cell Proliferation Assay (Promega), according to the manufacturer′ instructions. […] The color can then be quantified using a simple colorimetric assay. The results are read on a multiwall scanning spectrophotometer (ELISA reader).
# The inventors evaluated the capacity of the Antp-AAC-11-LZ (363-399) peptide to induce cell death a panel of hematologic and solid tumor cell lines, both P53 positive and P53 negative, derived from different tissues of origin, under low serum conditions (0.5-5%). […]
# [1] = test system: human triple-negative breast cancer xenograft PDX02; test: Triple-negative breast cancer patient-derived xenograft PDX02 in nude mice; format: in vivo; conditions: 2.4 mg/kg i.p., 7 daily injections, FIG. 8B
# Experimental: Breast cancer fragments were obtained from patients at the time of surgery, with informed written patient consent. After imaging-guided human tumor biopsies had been performed, fragments of 30 to 60 mm^3 were subcutaneously grafted in 6-week-old NMRI-nude mice (Centre-Elevage-Janvier, France), under xylasin (10 mg/kg)/ketamin (100 mg/kg) anesthesia. Mice were maintained in specific pathogen-free animal housing (Institut Universitaire d'Hematologie) and received estrogen (17 mg/mL) diluted in drinking water. Xenografts were characterized and subsequently subcutaneously transplanted from mouse to mouse. […] Two human triple-negative breast cancer (HBC) xenografts models were used in our experiments (PDX01 and PDX02). […] Following transplantation (n=6 per model) tumor growth was assessed by measuring tumor size in two dimension using a Vernier caliper. Tumor volume was calculated using the formula [3.14×long axis×short axis×short axis]/6 (Kjonniksen et al., 1989). […] Mice were weighted and the tumor size was measured by a caliper and recorded daily. Fourteen days after beginning of the treatment mice were sacrificed. The tumors, kidney, lungs, heart, liver, pancreas and spleen were taken and fixed. Paraffin-embedded sections were prepared and stained with hematoxylin and eosin for histological analysis.
# [2] = test system: leukemic cells isolated from hMRP8-PML/RARα transgenic mice; test: Acute promyelocytic leukemia (APL) mouse model, survival; format: in vivo
# Experimental: FIG. 9: Antp-AAC-11-LZ (363-399) peptide treatment of leukemic mice protects against disease progression. Mice were challenged with 10^4 leukemic cells isolated from hMRP8-PML/RARα transgenic mice, allowed to engraft for 10 d, and were then injected intraperitonaly each day for 7 consecutive days with Antp-AAC-11-LZ (363-399) peptide (1.8 mg/kg) or vehicle (normal saline solution), or subcutaneously implanted with a 21-d release pellet containing 5 mg ATRA (n=6 for each treatment). Mice were monitored for survival.
# We use an established in vivo APL model based on syngenic grafts of leukemic blasts from hMRP8-PML/RARα transgenic mice, as described by Brown et al. (Brown et al., 1997). This model mimics human APL, both in its biological characteristics and its response to conventional therapeutic drugs such as all-trans retinoic acid (ATRA) and 100% of the mice die of the disease (Brown et al., 1997; Kogan et al., 2000; Lallemand-Breitenbach et al., 1999). […] leukemic cells isolated from bone marrow, spleen, or lymph nodes of leukemic hMRP8-PML/RARα transgenic mice (Brown et al., 1997) were injected into the tail vein of 6-7 week old syngeneic FVB/N mice. Establishment of leukemia was assessed by the appearance of high leukocyte and low platelet counts at around day 8 (Brown et al., 1997). Ten days after transplantation, mice implanted with leukemic cells were randomly assigned to either type of treatment (n=6). Antp-AAC-11-LZ (363-399) peptide (1.8 mg/kg) or vehicle (normal saline solution) was injected intraperitonaly each day for 7 consecutive days. Retinoic acid was administrated by subcutaneous implantation of a 21-d release pellet containing 5 mg ATRA (Innovative Research of America). Mice were then monitored for survival.
substance,measurement,setting,value
Ac-RQIKIWFKKQNRRMKWKKAKLNAEKLKDFKIRLQYFARGLQVYIRQLRLALQGKT-NH2 [Antp-AAC-11-LZ (363-399)],cell viability loss of the cancer cell lines,solid tumor cell lines,marked cell viability loss
same,tumor size versus vehicle,[1],significantly smaller tumors
same,mice surviving up to 67 d,[2]; n=6 per treatment,Four of 6
same,mice surviving up to 76 d,[2]; n=6 per treatment,2
same,mean survival time,"[2]; peptide 1.8 mg/kg i.p. daily for 7 days, ATRA 5 mg 21-d release pellet s.c., from day 10 after graft, n=6",68.5 days
